Data from patent US9706770B2, “Rodenticide bait comprising difenacoum and method for controlling target rodent pests” (priority 2014, dated 2017).
Where two headings read alike, the source gives them in different places.

Key:
[1] = Hepatic persistence of trans and cis stereoisomers after a single per os dose of a mixture (Table 1); assay type: in vivo, rat; details: male Sprague Dawley rats, mixture 56% trans/44% cis, 5.2 mg difenacoum/kg per os on D0, mean of 4 rats
Experimental: On D0 per os tube feeding is performed on male laboratory rats (Sprague Dawley rats, Charles River, Saint germain sur 1′ Arbresle, France) aged 8 weeks and with a body mass of the order of 200 g with a mixture comprising 56% of trans-difenacoum and 44% of cis-difenacoum in an amount of 5.2 mg of difenacoum per kilogram of rat. The rats are kept alive by daily subcutaneous injection of a solution of vitamin K in an amount of 1 U per rat. On D+1, D+3, D+5, D+7, D+10, D+14 and D+21, 4 rats are anaesthetised with isoflurane and then sacrificed, and the livers are removed and frozen until analysed.

Sprague Dawley male rats [2] = assay: Coagulation time (Quick time) after a single per os dose of purified cis- or trans-difenacoum; assay type: in vivo, rat
Experimental: The comparative study of the rodenticidal efficacy of purified trans-difenacoum and purified cis-difenacoum is carried out by administration by means of a stomach tube (per os): • of a solution of cis-difenacoum to a first group of four “Sprague Dawley” male rats weighing between 180 and 220 g, and • of a solution of trans-difenacoum to a second group of four “Sprague Dawley” male rats weighing between 180 and 220 g.
These solutions of cis-difenacoum and trans-difenacoum are obtained by weighing cis-difenacoum or trans-difenacoum and dilution in a mixture formed from 95% vegetable oil and 5% DMSO.
The doses of cis-difenacoum and trans-difenacoum used are 2.6 mg of cis-difenacoum or trans-difenacoum per kilogram of rat. The dose of 2.6 mg of cis-difenacoum and trans-difenacoum per kilogram of rat corresponds to 4 times the median lethal dose (LD50) of difenacoum for rats. The dose of 5.2 mg of cis-difenacoum or trans-difenacoum per kilogram of rat corresponds to 8 times the median lethal dose (LD50) of difenacoum for rats.
3 ml blood samples are taken from the rats anaesthetised with isoflurane in sample tubes containing citrate (3.2%). The tubes are centrifuged at 2,000 g for 10 minutes and the plasma fraction is collected.
The coagulation time (Quick time) of the plasma is analysed by means of the “Neoplastine CI Determination of Prothrombin Time” kit (Diagnostica Stago, Asnière, France) by measurement on a Thrombotimer option 2 plus (Behnk Electronik, Norderstedt, Germany).
The normal value for the coagulation time of untreated rats is 10 to 20 seconds.

[3] = biological target: T1, recombinant enzyme rVKORC1 (Rattus norvegicus, UniProt Q6TEK4); assay: Inhibition constant of the recombinant enzyme rVKORC1; assay type: biochemical
T1 sequence (Q6TEK4 1-161): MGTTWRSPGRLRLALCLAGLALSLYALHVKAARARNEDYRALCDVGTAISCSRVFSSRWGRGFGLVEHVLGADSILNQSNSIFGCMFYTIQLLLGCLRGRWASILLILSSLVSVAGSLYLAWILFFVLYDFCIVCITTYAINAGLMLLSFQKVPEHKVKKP
Experimental: In addition, the value of the inhibition constant (Kicis=60 nM) of the recombinant enzyme rVKORC1 by cis-difenacoum is similar to the value of the inhibition constant of rVKORC1 by trans-difenacoum (Kitrans=30 nM).

in vivo [4] = assay: in vivo; set-up: species or system rat; details: male rats, control composition 56% cis/44% trans, 5.2 mg difenacoum/kg per os on D0; for hepatic concentration: from D+3
Experimental: (§1) On D0 a control composition of the prior art comprising a molar proportion of cis-difenacoum of 56% and a molar proportion of trans-difenacoum of 44% is administered per os to seven groups of four male laboratory rats (Sprague Dawley rats, Charles River, Saint germain sur l'Arbresle, France) weighing between 180 and 220 g in an amount of 5.2 mg of difenacoum per kilogram of rat. On D+1, D+3, D+5, D+7, D+10, D+14 and D+21, 4 rats are sacrificed. The livers are removed and weighed. A liquid/solid extraction of difenacoum with acetone is performed. The difenacoum is analysed by HPLC on a C8 (250 mm×10 mm) column kept at 30° C. with a mobile phase formed from 80% acetonitrile and 20% acid water. The flow rate of the mobile phase is kept at 2 ml/min and the trans-difenacoum and cis-difenacoum are detected by spectrophotometric analysis at the wavelength of 258 nm. The trans-difenacoum and cis-difenacoum are quantified by calibration with known amounts of trans-difenacoum and cis-difenacoum. The results are given in FIG. 3, in which the hepatic persistence of trans-difenacoum is represented by solid squares (▪) and the hepatic persistence of cis-difenacoum is represented by open diamonds (⋄).

[5] = assay type: in vivo, rat; details: for concentration in the liver: D+1
Experimental: as §1
On D+1 the concentration of cis-difenacoum in the liver of the female rats (9.6 μg/g of liver) is essentially equivalent to the concentration of cis-difenacoum in the liver of the male rats (7.3 μg/g of liver). The concentration on D+1 of trans-difenacoum in the liver of the female rats (3.3 μg/g of liver) is greater than the concentration of trans-difenacoum in the liver of the male rats (0.9 μg/g of liver). […] For the same dosage, the hepatic concentrations of trans-difenacoum are thus higher in the female at least up to three days after treatment (D0).

in vivo [6] = assay type: in vivo, rat; details: Sprague Dawley, rat, liver, oral; male rats, one dose per day on D0, D+1, D+2; D+3 (day following the last dose); read-out: hepatic persistence (concentration in the liver)
Experimental: (§2) Counting from D0 and for three days (D0, D+1 and D+2), trans-difenacoum in an amount of 0.6 mg/kg, 1.2 mg/kg or 2.6 mg/kg (mg of trans-difenacoum per kilogram of male rat) is administered daily to “Sprague Dawley” male rats weighing between 180 and 220 g. On D+3, the coagulation time of these male rats is measured and the concentration of trans-difenacoum in the liver of these male rats (expressed in μg of trans-difenacoum per g of liver) is analysed.

Sprague Dawley male rats [7] = assay: in vivo; assay type: in vivo, rat
Experimental: as §2

in vivo [8] = assay type: in vivo, rat; details: Sprague Dawley, liver, oral, female rats
Experimental: (§3) Counting from D0 and for three days (D0, D+1 and D+2), trans-difenacoum in an amount of 0.3 mg/kg; 0.6 mg/kg; 0.75 mg/kg; 1.2 mg/kg or 2.6 mg/kg (mg of trans-difenacoum per kilogram of female rat) is administered to female “Sprague Dawley” rats in an amount of one dose per day. On D+4, the coagulation time of these female rats is measured and the concentration of trans-difenacoum in the liver (expressed in μg of difenacoum per g of liver) of these female rats is analysed. The administration for three days (D0, D+1 and D+2) in an amount of a dose of trans-difenacoum greater than 0.3 mg/kg/day to female rats achieves at D+4 a high value of the coagulation time (greater than or equal to 500 seconds) in these female rats and a moderate hepatic persistence of less than 10 μg of trans-difenacoum per gram of liver for a dose of less than 2.6 mg/kg.

[9] = test system: female Sprague Dawley rats; assay: in vivo; assay type: in vivo, rat
Experimental: as §3

[10] = 2.6 mg/kg per os on D0, D+1, untreated 10 to 20 seconds

In the case of `O=c1oc2ccccc2c(O)c1C1CC(c2ccc(-c3ccccc3)cc2)Cc2ccccc21` (stereo not drawn) [cis-difenacoum, 3-(biphenyl-4-yl)-1-(4-hydroxycoumarin-3-yl)-1,2,3,4-tetrahydronaphthalene, reference compound], the Hepatic content ([1]; D + 1, listed as cis) is reported as 16.82 µg/g, the Hepatic content ([1]; D + 3, listed as cis) is reported as 8.28 µg/g and the Hepatic content ([1]; D + 5, listed as cis) is reported as 4.86 µg/g. The Hepatic content ([1]; D + 10, listed as cis) was 1.85 µg/g, the Hepatic content ([1]; D + 21, listed as cis) was 1.41 µg/g and the “coagulation time (Quick time)” value (Sprague Dawley male rats [2]; [10]) was 62 s. For the same molecule, the Ki [3] was 60 nM, the hepatic concentration (in vivo [4]) was 4 µg/g and the “concentration in the liver” value ([5]; female rats) was 9.6 μg/g of liver. For the same molecule, the “concentration in the liver” value ([5]; male rats) was 7.3 μg/g of liver.
Molecule `O=c1oc2ccccc2c(O)c1C1CC(c2ccc(-c3ccccc3)cc2)Cc2ccccc21` (stereo not drawn) [trans-difenacoum, 3-(biphenyl-4-yl)-1-(4-hydroxycoumarin-3-yl)-1,2,3,4-tetrahydronaphthalene] has a Hepatic content ([1]; D + 1) of 4.22 µg/g, a Hepatic content ([1]; D + 3) of 1.05 µg/g and a Hepatic content ([1]; D + 5) of 0.25 µg/g. For the same molecule, the Hepatic content ([1]; D + 10) was 0.1 µg/g, the Hepatic content ([1]; D + 21) was 0.17 µg/g and the “coagulation time (Quick time)” value (Sprague Dawley male rats [2]; [10]) was 62 s. For the same molecule, the “coagulation time (Quick time)” value (Sprague Dawley male rats [2]; 5.2 mg/kg per os on D0, D+1) was 84 s, the Ki [3] was 30 nM and the concentration at 1 day (in vivo [4]; Sprague Dawley, rat, liver, oral, 5.2 mg/kg, D+1, read-out: hepatic concentration) was roughly 1000 ng/g. For the same molecule, the hepatic concentration (in vivo [4]) was “almost undetectable”, the “concentration in the liver, female rats in comparison with male rats” value ([5]; D+3) was “greater in the female rats” and the “concentration in the liver” value ([5]; female rats) was 3.3 μg/g of liver. The “kinetics of the hepatic elimination, female rats versus male rats” value ([5]; in particular during the first 3 days) was “slower in the female rats than in the male rats”, the “concentration in the liver” value ([5]; male rats) was 0.9 μg/g of liver and the concentration at 3 day (in vivo [6]) was roughly 2000 ng/g. For the same molecule, the “amount contained in a rat corpse” value (Sprague Dawley male rats [7]; considering that the liver contains half the ingested trans-difenacoum) was “about 40 μg”, the “coagulability of the blood (increase in Quick time)” value (Sprague Dawley male rats [7]; male rat, dosage of 1.2 mg/kg or higher, three daily doses) was “uncoagulable” and the “global amount per liver” value (Sprague Dawley male rats [7]; male rat, liver mass taken as of the order of 10 g) was 20 µg. For the same molecule, the Quick time (Sprague Dawley male rats [7]; male rats, 0.6, 1.2 or 2.6 mg/kg one dose per day on D0, D+1, D+2, D+3) was “massive increase”, the concentration at 4 day (in vivo [8]; 2.6 mg/kg per day, 2.6 mg per day and per kilogram of rat for 3 days, read-out: hepatic concentration) was roughly 12000 ng/g and the concentration at 4 day (in vivo [8]; rat, three daily doses of less than 2.6 mg/kg, D+4, read-out: hepatic persistence) was less than 10000 ng/g. The “coagulability of the blood (increase in coagulation time)” value ([9]; dosage of 0.6 mg/kg or higher, three daily doses) was “uncoagulable” and the coagulation time ([9]; dose greater than 0.3 mg/kg/day on D0, D+1, D+2, D+4) was “greater than or equal to 500 seconds”.
